In patent publication US20250034135A1, “ANTI-APOPTOTIC PROTEIN BCL-2 INHIBITOR, PHARMACEUTICAL COMPOSITION AND USES THEREOF” (HANGZHOU HEALZEN THERAPEUTICS CO., LTD., priority 2021, published 2025):
Read-outs that look alike come from different tables or passages of the source.

Experiments:
human platelets = assay: Platelet viability test (CTG); type: cell-based; settings: CTG after 24 h
Method: After 10 mL of platelet-rich plasma was added to 30 mL of ACD-A solution and uniformly mixed, centrifugation was performed at 1200 g, and the supernatant was discarded; 10 mL of ACD-A solution was added, resuspended, uniformly mixed, and centrifuged at 1200 g for 10 min, and the supernatant was discarded. 5 mL of HEPES-Tyrode's buffer containing 1 μM PGE1 and 0.2 U/mL apyrase was added, slightly inverted, and then centrifuged at 800 g for 5 min, and the supernatant was discarded. 10 mL of HEPES-Tyrode's buffer containing 1 μM PGE1 and 0.2 U/mL apyrase was added, resuspended, and centrifuged at 1000 g for 5 min, and the supernatant was discarded. 2 mL of HEPES-Tyrode's buffer containing 1 μM PGE1+10% FBS-resuspended platelets was added, 200 μL was taken into a centrifuge tube and diluted to 2 mL. Then it was diluted to 1, 0.8, 0.6, 0.4, 0.2, 0.1, 0.08, 0.06, 0.04, 0.02, 0.01 times, the volume was complemented to 100 μL, and 50 μL of CTG reagent was added to detect cell viability. The maximum valid dilution with a fluorescence value not exceeding […] was selected for dilution, 90 μL/well was connected to a 96-well cell plate for chemiluminescence detection. A compound was prepared with HEPES-Tyrode's buffer containing 1 μM of PGE1+10% FBS, and added to the cells, which was gently beaten evenly and detected for cell viability by adding 50 μL CTG after 24 h.

RS4; 11 cells [1] = assay: In vivo anti-tumor efficacy, RS4; 11 subcutaneous transplanted tumor model; settings: 11 transplanted tumor, NOD/SCID mice, after 8 days
From the text: Tumor models were established by subcutaneous inoculation of RS4; 11 cells into NOD/SCID mice. When the tumors grew to about 100 mm^3, the mice were divided into groups and administered as follows: The control group was given a corresponding volume of CMC-Na solution by gavage; […]; the weight and tumor size changes of the mice were weighed twice a week, and after 8 days, the efficacy of the compounds on RS4; 11 mice transplanted tumors was investigated.
The relative tumor proliferation rate T/C %=TRTV/CRTV×100% (TRTV: average RTV of the treatment group; CRTV: average RTV of the negative control group). Based on the results of tumor measurements, the relative tumor volume (RTV) was calculated using the formula RTV=Vt/V0, where V0 was the tumor volume measured during group division (i.e. D0), Vt was the tumor volume at a certain measurement, and TRTV and CRTV used the data of the same day.

RS4; 11 cells [2] = assay: Tumor proliferation inhibitory activity test (MTS) on RS4; 11; type: cell-based; settings: 3 days incubation
Method in brief: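 RS4;11 cells were exposed to serially diluted compound (0.2% DMSO control) for 3 days at 37 °C/5% CO2, followed by MTS for 3–4 h. Read-out was OD490−OD690, and inhibition was calculated relative to the DMSO and blank wells.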

BCL-XL = BCL-XL (Homo sapiens (Human), UniProt Q07817); assay: BCL-XL enzyme molecular level activity test (HTRF, binding to BIM peptide); settings: binding of BCL-XL to BIM peptide, read-out: BCL-XL inhibitory activity (IC50)
Method in brief: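 HTRF binding assay: His-tagged recombinant BCL-XL with biotin-BIM peptide and compound (2% DMSO), 1 h. Anti-His and streptavidin-XL665 detection reagents added, 4 h at room temperature. Excitation 320 nm; 665/615 nm ratio reflects binding, with no-protein background and no-compound full-binding controls.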

BCL2 (D103Y) = BCL2 (D103Y) (Homo sapiens (Human), UniProt P10415, D103Y); assay: Molecular level activity test of BCL2 (D103Y) (HTRF, binding to Bim peptide); settings: read-out: BCL-2 (D103Y) (nM) (inhibitory activity, IC50)
Method in brief: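 His-tagged recombinant protein mixed with biotinylated BIM peptide and compound (2% DMSO), reacted 1 h. Anti-His and streptavidin-XL665 detection reagents then added and incubated 4 h at room temperature before HTRF read-out of binding inhibition.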

BCL2 = BCL2 (Homo sapiens (Human), UniProt P10415); assay: Molecular level activity test of anti-apoptotic protein BCL2 (HTRF, binding to Bim peptide); settings: HTRF, binding of BCL2 to Bim peptide; read-out: BCL2 nM (inhibitory activity, IC50)
Method in brief: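 Signal comes from proximity of anti-His-labelled BCL2 and streptavidin-XL665-bound biotin-BIM peptide. Test compounds, added in 2% DMSO, were preincubated with protein and peptide for one hour; detection reagents then incubated four hours at room temperature before reading.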

BCL2 (G101V) = BCL2 (G101V) (Homo sapiens (Human), UniProt P10415, G101V); assay: Molecular level activity test of anti-apoptotic protein BCL2 (G101V) (HTRF, binding to Bim peptide); settings: inhibition of BCL2 (G101V) binding to Bim peptide, read-out: BCL-2 (G101V)
Method in brief: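 His-tagged recombinant BCL2 (G101V) incubated 1 h with biotin-BIM peptide and compound (2% DMSO), then anti-His and streptavidin-XL665 detection reagents added for 4 h at room temperature. HTRF signal reflects compound effect on BCL2–BIM binding.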

Rat absorption test = settings: Sprague-Dawley, plasma, po, 10 mg/kg
Method: (§1) Experimental method: SD rats were used as experimental animals and administered 10 mg/kg by gavage. The blood collection time points for gavage administration were 0, 0.5, 1, 2, 3, 4, 6, 8, and 24 hours. 3 mL of whole blood was collected, and after centrifugation, 1 mL of plasma was taken for LC-MS analysis.

human CYP3A4 enzyme [3] = target: T1, human CYP3A4 enzyme (Homo sapiens (Human), UniProt P08684); assay: CYP3A4 enzyme inhibitory activity (Vivid CYP3A4 Green screening kit); settings: read-out: CYP3A4 (IC50); Vivid CYP3A4 Green screening kit
Method: (§2) The inhibitory activity of compounds on human CYP3A4 enzyme was detected using a VIVID™ CYP3A4 GREEN SCRNING KIT reagent kit. The Vivid™ CYP450 screening kit includes a Vivid™ substrate, Vivid™ fluorescence standard, reaction buffer, Vivid™ regeneration system, NADP+ and CYP450 BACULOSOMES™ Plus reagent. Operations were performed following the instructions, and a blank control group was set up without adding any compounds.
(§3) The IC50 value of the compounds inhibiting human CYP3A4 enzyme was calculated using Graphpad Prism 7.00 software through the formula Y=100/(1+10^((Log IC50−X)*HillSlope)).

in vivo = settings: Sprague-Dawley, rat, po, 10 mg/kg
Method: as §1

human CYP3A4 enzyme [4] = target: T1, human CYP3A4 enzyme
Method: as §2, §3

[5] = beagle, dog, in vivo, 5 mg/kg
Method: (§4) Experimental method: Beagle dogs were used as experimental animals and administered 5 mg/kg by gavage. The blood collection time points for gavage administration were 0, 0.5, 1, 2, 3, 4, 6, 8, and 24 hours. 3 mL of whole blood was collected, and after centrifugation, plasma was taken for LC-MS analysis.

Canine absorption test = settings: Beagle dogs, 5 mg/kg by gavage
Method: as §4

T1 sequence (P08684 whole entry): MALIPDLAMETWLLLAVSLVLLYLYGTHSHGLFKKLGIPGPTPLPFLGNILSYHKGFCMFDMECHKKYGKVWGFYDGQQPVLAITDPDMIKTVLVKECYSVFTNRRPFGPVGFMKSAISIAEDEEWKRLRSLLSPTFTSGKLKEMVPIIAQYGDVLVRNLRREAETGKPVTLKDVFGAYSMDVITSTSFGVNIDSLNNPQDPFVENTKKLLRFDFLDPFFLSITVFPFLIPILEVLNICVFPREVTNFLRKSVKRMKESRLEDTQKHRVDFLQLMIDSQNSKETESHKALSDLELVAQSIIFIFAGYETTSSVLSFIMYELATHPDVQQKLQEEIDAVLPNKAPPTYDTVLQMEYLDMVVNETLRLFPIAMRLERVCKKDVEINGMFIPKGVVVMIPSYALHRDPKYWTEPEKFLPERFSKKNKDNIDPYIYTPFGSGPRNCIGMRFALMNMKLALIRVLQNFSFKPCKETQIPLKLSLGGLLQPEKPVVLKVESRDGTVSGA
Chain of BCL-XL (Q07817 whole entry): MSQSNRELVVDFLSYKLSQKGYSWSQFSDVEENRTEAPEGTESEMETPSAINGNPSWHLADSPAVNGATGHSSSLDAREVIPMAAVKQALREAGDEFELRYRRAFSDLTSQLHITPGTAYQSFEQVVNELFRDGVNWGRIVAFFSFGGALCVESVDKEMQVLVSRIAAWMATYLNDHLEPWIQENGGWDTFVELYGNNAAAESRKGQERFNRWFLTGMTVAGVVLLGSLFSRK

Row | IC50 (RS4; 11 cells [2]) | IC50 (BCL-XL; values given in μM) | AUC (in vivo) | IC50 (human CYP3A4 enzyme [4]) | DNAUC [5] | Molecule | IC50 (human platelets) | T/C % (RS4; 11 cells [1]; 5 mg/kg by gavage) | IC50 (BCL2 (D103Y)) | IC50 (BCL2) | IC50 (BCL2 (G101V)) | IC50 (RS4; 11 cells [2]; Homo sapiens, RS4-11, 72 h) | AUC (Rat absorption test) | IC50 (human CYP3A4 enzyme [3]) | IC50 (BCL-XL; values in nM) | DNAUC (Canine absorption test) | T/C % (RS4; 11 cells [1]; 15 mg/kg by gavage)
1 | < 0.5 nM | > 1 µM |  |  |  | (R)-2-((1H-pyrrolo[2,3-b]pyrid-5-yl)oxy)-5-fluoro-N-((4-(((4-fluorotetrahydro-2H-pyran-4-yl)methyl)amino)-3-nitrophenyl)sulfonyl)-4-(2-(2-(2-isopropylphenyl)-4-(4-methoxybenzyl)piperazin-1-yl)-7-azaspiro[3.5]non-7-yl)benzamide [compound 152] | > 5000 nM | 0.35% | < 10 nM | < 10 nM | < 10 nM |  |  |  |  |  | 
2 |  |  |  |  |  | COc1ccc(CN2CCN(C3CC4(CCN(c5cc(Oc6cnc7[nH]ccc7c6)c(C(=O)NS(=O)(=O)c6ccc(NC[C@H]7CC[C@](C)(O)CC7)c([N+](=O)[O-])c6)cn5)CC4)C3)[C@H](c3ccccc3C(C)C)C2)cc1 [compound 256, 4-((1H-pyrrolo[2,3-b]pyrid-5-yl)oxy)-N-((4-((((1r, 4r)-4-hydroxy-4-methylcyclohexyl)methyl)amino)-3-nitrophenyl)sulfonyl)-6-(2-((R)-2-(2-isopropylphenyl)-4-(4-methoxybenzyl)piperazin-1-yl)-7-azaspiro[3.5]non-7-yl) nicotinamide] |  |  | < 10 nM | < 10 nM | < 10 nM | < 0.5 nM | 1800 ng·h/mL | > 20000 nM |  |  | 
3 |  |  | 3330 ng·h/mL | > 20000 nM | 13685 AUC (h*ng/mL)/dose (mg/kg) | COc1ccc(CN2CCN(C3CC4(CCN(c5cc(Oc6cnc7[nH]ccc7c6)c(C(=O)NS(=O)(=O)c6ccc(NCC7(F)CCOCC7)c([N+](=O)[O-])c6)cc5F)CC4)C3)[C@H](c3ccccc3C(C)C)C2)cc1 [compound 152, (R)-2-((1H-pyrrolo[2,3-b]pyrid-5-yl)oxy)-5-fluoro-N-((4-(((4-fluorotetrahydro-2H-pyran-4-yl)methyl)amino)-3-nitrophenyl)sulfonyl)-4-(2-(2-(2-isopropylphenyl)-4-(4-methoxybenzyl)piperazin-1-yl)-7-azaspiro[3.5]non-7-yl)benzamide] |  |  |  |  |  |  |  |  |  |  | 
4 |  |  |  |  |  | COc1ccc(CN2CCN(C3CC4(CCN(c5cc(Oc6cnc7[nH]ccc7c6)c(C(=O)NS(=O)(=O)c6cc([N+](=O)[O-])c(NC[C@H]7CC[C@](C)(O)CC7)c7[nH]cnc67)cn5)CC4)C3)[C@H](c3ccccc3C(C)C)C2)cc1 [compound 266, 4-((1H-pyrrolo[2,3-b]pyrid-5-yl)oxy)-N-((7-((((1r,4r)-4-hydroxy-4-methylcyclohexyl)methyl)amino)-6-nitro-1H-benzo[d]imidazol-4-yl)sulfonyl)-6-(2-((R)-2-(2-isopropylphenyl)-4-(4-methoxybenzyl)piperazin-1-yl)-7-azaspiro[3.5]non-7-yl) nicotinamide] |  | 15.38% | < 10 nM | < 10 nM | < 10 nM | < 0.5 nM |  | > 20000 nM |  |  | 
5 |  |  |  |  |  | COc1ccc(CN2CCN(C3CC4(CCN(c5cc(Oc6cnc7[nH]ccc7c6)c(C(=O)NS(=O)(=O)c6ccc(NC[C@H]7CC[C@](C)(O)CC7)c([N+](=O)[O-])c6)cc5F)CC4)C3)[C@H](c3ccccc3C(C)C)C2)cc1 [compound 234] | > 5000 nM | 1.26% | < 10 nM | < 10 nM | < 10 nM | < 0.5 nM | 5630 ng·h/mL | > 20000 nM | > 0.5 µM | 9103 AUC (h*ng/mL)/dose (mg/kg) | 
6 |  |  |  |  |  | COc1ccc(CN2CCN(C3CC4(CCN(c5ccc(C(=O)NS(=O)(=O)c6cc([N+](=O)[O-])c(NCC7(F)CCOCC7)c7[nH]cnc67)c(Oc6cnc7[nH]ccc7c6)c5)CC4)C3)[C@H](c3ccccc3C(C)C)C2)cc1 [compound 261, (R)-2-((1H-pyrrolo[2,3-b]pyrid-5-yl)oxy)-N-((7-(((4-fluorotetrahydro-2H-pyran-4-yl)methyl)amino)-6-nitro-1H-benzo[d]imidazol-4-yl)sulfonyl)-4-(2-(2-(2-isopropylphenyl)-4-(4-methoxybenzyl)piperazin-1-yl)-7-azaspiro[3.5]non-7-yl)benzamide] |  |  | < 10 nM | < 10 nM | < 10 nM | < 0.5 nM | 1210 ng·h/mL | > 20000 nM |  |  | 5.35%
